Some test systems named below: NCI-H23; OVCAR-5; M14; RXF 393; OVCAR-8; MDA-MB-435; RPMI-8226; DU-145; SNB-19; SK-OV-3; UO-31; HOP-62; HT-29; 786-0; SF-539; SK-MEL-28; MDA-MB-231; MOLT-4; Malme-3M.
Assay in all cases: NCI tumour cell line growth inhibition, 48 h

Each structure is given as a SMILES string.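 96-well plates; 48 h exposure; 5 concentrations. Endpoints by linear interpolation between flanking doses. Not reached: highest tested concentration assigned. Abbreviation: GI50, concentration required for 50% inhibition of growth.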 The source made the active and inactive calls. No stated cut-off is given here; in the data, active = GI50 up to about 1.1 µM and inactive = higher. Where only a bound is given, the exact number is not on record here.

Consider `CC(C)(C)OC(=O)N(CCCCN(CCCNC(=O)C(F)(F)F)C(=O)OC(C)(C)C)CCCNC(=O)C(F)(F)F`, for which the GI50 in the test with NCI-H23, with OVCAR-5, with M14, with RXF 393, in the test on OVCAR-8 and in the test with MDA-MB-435 was > 100 µM (inactive) each time. Moreover, the GI50 with RPMI-8226 was 37.7 µM (inactive); in the test on DU-145 it was > 100 µM (inactive); in the test on SNB-19, > 100 µM (inactive); in the test with SK-OV-3, > 100 µM (inactive); in the test with UO-31, > 100 µM (inactive); in the test on HOP-62 it was 38.7 µM (inactive). The GI50 was > 100 µM (inactive) in the test with HT-29; > 100 µM (inactive) with 786-0; > 100 µM (inactive) in the test on SF-539; > 100 µM (inactive) in the test on SK-MEL-28; > 100 µM (inactive) in the test on MDA-MB-231; 71.9 µM (inactive) in the test on MOLT-4.

For the compound `Cc1ccc(-c2cc(-c3ccco3)c(C#N)c(O)n2)cc1`, the GI50 was > 100 µM (inactive) in the test on NCI-H23; > 100 µM (inactive) in the test on OVCAR-5; > 100 µM (inactive) in the test with M14; 95.1 µM (inactive) with RXF 393; > 100 µM (inactive) with OVCAR-8; > 100 µM (inactive) in the test on RPMI-8226. For the same compound, the GI50 with Malme-3M is > 100 µM (inactive); with SNB-19, > 100 µM (inactive); with SK-OV-3, 29.4 µM (inactive); in the test with UO-31 it was > 100 µM (inactive); with HOP-62, 50.2 µM (inactive); in the test on HT-29, > 100 µM (inactive). For the same compound, the GI50 in the test on 786-0, with SF-539, in the test on SK-MEL-28 and in the test with MOLT-4 was > 100 µM (inactive) in each case.

As for `CCN(CC)CCN(/C(=N/c1ccccc1)N1CCOCC1)c1ccccc1`, the GI50 is 70 µM (inactive) with NCI-H23; > 100 µM (inactive) with M14; > 100 µM (inactive) in the test with RXF 393; > 100 µM (inactive) in the test on OVCAR-8; 28.8 µM (inactive) with MDA-MB-435; > 100 µM (inactive) in the test with RPMI-8226. Further, the GI50 with DU-145 was > 100 µM (inactive); in the test on Malme-3M, > 100 µM (inactive); in the test with SNB-19 it was > 100 µM (inactive); with SK-OV-3, > 100 µM (inactive); with UO-31 it was > 100 µM (inactive); in the test with HOP-62, 74.6 µM (inactive). Also, the GI50 is 42.1 µM (inactive) with HT-29; > 100 µM (inactive) in the test with 786-0; > 100 µM (inactive) in the test with SF-539; > 100 µM (inactive) in the test with SK-MEL-28; > 100 µM (inactive) in the test on MDA-MB-231; > 100 µM (inactive) in the test on MOLT-4.

As to `COc1cc2c(c(OC)c1O)-c1ccc(SC)c(=O)cc1C(NC(C)=O)CC2` (stereo not drawn), the GI50 in the test on NCI-H23 was 0.0167 µM (active); in the test with OVCAR-5, 4.83 µM (inactive); in the test on M14, 0.0249 µM (active); in the test with RXF 393, 0.0171 µM (active); with OVCAR-8, 0.0307 µM (active); with RPMI-8226 it was < 0.0121 µM (active). In addition, the GI50 in the test with Malme-3M was < 0.01 µM (active); with SNB-19, 0.019 µM (active); with SK-OV-3 it was 0.215 µM (active); in the test on UO-31, 5.96 µM (inactive); in the test on HOP-62 it was 0.0405 µM (active); in the test on HT-29, 0.0119 µM (active). For the same compound, the GI50 in the test with 786-0 is 0.0545 µM (active); in the test with SF-539, < 0.01 µM (active); in the test on SK-MEL-28, < 0.01 µM (active); in the test with MOLT-4, < 0.0122 µM (active).

Regarding `CCOC(=O)CCc1c(C(=O)OCC)[nH]c(/C=C2\NC(=O)C(C)=C2CC)c1C`, the GI50 is 25.6 µM (inactive) in the test with OVCAR-5; 24.8 µM (inactive) with M14; 23.2 µM (inactive) in the test on RXF 393; 5.83 µM (inactive) in the test on OVCAR-8; > 100 µM (inactive) in the test on MDA-MB-435; > 100 µM (inactive) in the test on RPMI-8226. For the same compound, the GI50 in the test with DU-145 is 19.3 µM (inactive); with Malme-3M it was 10.4 µM (inactive); with SK-OV-3 it was 22 µM (inactive); in the test on UO-31, 44 µM (inactive); in the test on HOP-62, 14.5 µM (inactive); in the test with HT-29, 50.7 µM (inactive). The GI50 was 14.5 µM (inactive) in the test with 786-0; 27.9 µM (inactive) in the test with SF-539; 51.8 µM (inactive) with SK-MEL-28; 19.8 µM (inactive) in the test with MDA-MB-231; > 100 µM (inactive) with MOLT-4.

For the compound `OCC(O)C(OC1OC(CO)C(O)C(O)C1O)c1nn(-c2ccccc2)c2nc3cc(Cl)ccc3nc12` (stereo not drawn), the GI50 in the test on NCI-H23, in the test with OVCAR-5, in the test on M14, with RXF 393, in the test with OVCAR-8 and in the test on RPMI-8226 was > 100 µM (inactive) throughout. Also, the GI50 in the test with Malme-3M, in the test on SNB-19, with SK-OV-3, with UO-31, with HOP-62 and in the test with HT-29 was > 100 µM (inactive) in each case. For the same compound, the GI50 with 786-0, with SF-539, in the test with SK-MEL-28 and with MOLT-4 was > 100 µM (inactive) in each case.

Regarding `CC(=O)OC1(C(C)=O)CC2(c3ccccc3)OC1(c1ccccc1)c1ccccc12` (stereo not drawn), the GI50 in the test with NCI-H23 is 8.34 µM (inactive); with OVCAR-5 it was > 100 µM (inactive); in the test with M14, 14.4 µM (inactive); with RXF 393, 13 µM (inactive); in the test on OVCAR-8, 34.6 µM (inactive); with RPMI-8226 it was 3.18 µM (inactive). Moreover, the GI50 is 18.6 µM (inactive) in the test with Malme-3M; 7.73 µM (inactive) with SNB-19; 46.9 µM (inactive) in the test on SK-OV-3; 12 µM (inactive) in the test on UO-31; 11.6 µM (inactive) with HOP-62; 30.1 µM (inactive) in the test on HT-29. In addition, the GI50 was 31 µM (inactive) in the test on 786-0, 32 µM (inactive) in the test with SF-539, 31.6 µM (inactive) in the test with SK-MEL-28 and 5.81 µM (inactive) with MOLT-4.

Turning to `CC(C)(CN1CCCCC1)C(=O)CC(SCCS(=O)(=O)O)c1ccc(Br)cc1` (stereo not drawn), the GI50 with NCI-H23 was 2.34 µM (inactive); in the test with OVCAR-5, 2.8 µM (inactive); in the test on M14 it was 1.59 µM (inactive); with RXF 393, 1.41 µM (inactive); with OVCAR-8, 2.38 µM (inactive); in the test with RPMI-8226 it was 1.94 µM (inactive). For the same compound, the GI50 with Malme-3M is 1.39 µM (inactive); with SNB-19, 2.34 µM (inactive); in the test with SK-OV-3 it was 2.93 µM (inactive); in the test on UO-31 it was 1.47 µM (inactive); with HOP-62, 6.18 µM (inactive); with HT-29, 1.75 µM (inactive). Moreover, the GI50 was 1.26 µM (inactive) with 786-0, 1.6 µM (inactive) in the test with SF-539, 3.27 µM (inactive) with SK-MEL-28 and 2.23 µM (inactive) in the test with MOLT-4.

The values are drawn from ChEMBL document CHEMBL1201862, “PubChem BioAssay data set” (2004).
